For experiment [1], the target named is human D2-long dopamine receptor (Homo sapiens (Human), UniProt P14416). The experiment can be described thus: Radioligand binding (125I-IABN competition), D2. The following applies: HEK cell membranes expressing human D2-long. How it is done: (§1) The affinities of the target compounds were determined using radioligand binding experiments. […] Competition curves were modeled for a single site. Data from competition dose-response curves were analyzed using Tablecurve program (Jandel). IC50 values were converted to equilibrium dissociation constants (Ki values) using the Cheng and Prusoff correction.

The target of experiment [2] is human D3 dopamine receptor (Homo sapiens (Human), UniProt P35462). The experiment can be described thus: Radioligand binding (125I-IABN competition), D3. The following applies: for Ki: 125I-IABN competition, HEK cell membranes expressing human D3; for D2/D3 (D3 selectivity ratio, D2 Ki/D3 Ki): calculated D2 Ki/D3 Ki. As to the method:
as §1

human D3 dopamine receptor, sequence (P35462 whole entry): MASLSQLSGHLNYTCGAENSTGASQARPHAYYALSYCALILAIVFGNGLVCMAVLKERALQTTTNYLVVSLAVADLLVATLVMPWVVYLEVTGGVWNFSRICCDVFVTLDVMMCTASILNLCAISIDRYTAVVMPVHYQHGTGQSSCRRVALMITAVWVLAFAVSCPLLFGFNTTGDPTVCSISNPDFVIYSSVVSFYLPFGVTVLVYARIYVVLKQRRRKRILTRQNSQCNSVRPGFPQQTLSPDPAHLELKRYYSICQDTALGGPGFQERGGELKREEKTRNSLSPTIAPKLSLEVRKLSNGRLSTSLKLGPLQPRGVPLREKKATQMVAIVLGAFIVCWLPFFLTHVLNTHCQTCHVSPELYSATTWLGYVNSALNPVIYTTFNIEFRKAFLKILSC
human D2-long dopamine receptor, sequence (P14416 whole entry): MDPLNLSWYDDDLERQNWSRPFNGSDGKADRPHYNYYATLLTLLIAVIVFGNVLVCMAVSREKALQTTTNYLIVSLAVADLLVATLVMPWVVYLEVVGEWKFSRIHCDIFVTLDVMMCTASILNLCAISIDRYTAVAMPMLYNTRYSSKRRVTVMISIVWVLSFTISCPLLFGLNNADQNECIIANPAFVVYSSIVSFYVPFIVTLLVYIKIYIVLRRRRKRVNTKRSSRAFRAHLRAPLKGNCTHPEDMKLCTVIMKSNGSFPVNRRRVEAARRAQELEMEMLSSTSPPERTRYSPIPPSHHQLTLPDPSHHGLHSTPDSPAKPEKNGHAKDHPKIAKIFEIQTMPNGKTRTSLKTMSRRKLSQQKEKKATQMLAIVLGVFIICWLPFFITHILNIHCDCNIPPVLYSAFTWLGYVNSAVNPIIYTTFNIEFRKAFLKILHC

By Ki is commonly meant a measure of affinity in units of concentration, obtained from inhibition or displacement. Take `CC(C)(C)c1nc(N2CCN(CCCCNC(=O)N3CCN(c4ccccc4-c4ccccc4)CC3)CC2)cc(C(F)(F)F)n1` [Compound 43, 4-([1,1′-Biphenyl]-2-yl)-N-(4-(4-(2-(tert-butyl)-6-(trifluoromethyl)pyrimidin-4-yl)piperazin-1-yl)butyl)piperazine-1-carboxamide]: the Ki in experiment [1] came to 1020 ± 75.6 nM. In experiment [2], the affinity, expressed as Ki, was 15 ± 3.1 nM and the “D2/D3 (D3 selectivity ratio, D2 Ki/D3 Ki)” value is 68.
For `CC(C)(C)c1nc(N2CCN(CCCCNC(=O)N3CCN(c4cccc(-c5ccccc5)c4)CC3)CC2)cc(C(F)(F)F)n1` [Compound 44, 4-([1,1′-Biphenyl]-3-yl)-N-(4-(4-(2-(tert-butyl)-6-(trifluoromethyl)pyrimidin-4-yl)piperazin-1-yl)butyl)piperazine-1-carboxamide] the same measures were 1110 ± 104 nM, 49.3 ± 11.2 nM and 22.
Turning to `CC(C)(C)c1nc(N2CCN(CCCCNC(=O)N3CCN(c4ccc(-c5ccccc5)cc4)CC3)CC2)cc(C(F)(F)F)n1` [Compound 45, 4-([1,1′-Biphenyl]-4-yl)-N-(4-(4-(2-(tert-butyl)-6-(trifluoromethyl)pyrimidin-4-yl)piperazin-1-yl)butyl)piperazine-1-carboxamide], the Ki in experiment [1] came out at 621 ± 143 nM; in experiment [2] it was 25.1 ± 5.5 nM. Moreover, in experiment [2], the “D2/D3 (D3 selectivity ratio, D2 Ki/D3 Ki)” value was 25.
For `Cc1cc(N2CCN(CCCCNC(=O)N3CCN(S(=O)(=O)c4ccccc4)CC3)CC2)nc(C(C)(C)C)n1` [Compound 46, N-(4-(4-(2-(tert-Butyl)-6-methylpyrimidin-4-yl)piperazin-1-yl)butyl)-4-(phenylsulfonyl)piperazine-1-carboxamide] the same measures were 906 ± 169 nM, 31.9 ± 7.2 nM and 28.
The compound `CC(C)(C)c1nc(N2CCN(CCCCNC(=O)N3CCC(O)(c4ccccc4)CC3)CC2)cc(C(F)(F)F)n1` [Compound 49, N-(4-(4-(2-(tert-Butyl)-6-(trifluoromethyl)pyrimidin-4-yl)piperazin-1-yl)butyl)-4-hydroxy-4-phenylpiperidine-1-carboxamide] yielded a Ki in experiment [1] of 1270 ± 291 nM. For the same compound, in experiment [2], affinity was put at a Ki of 27 ± 3.9 nM and the “D2/D3 (D3 selectivity ratio, D2 Ki/D3 Ki)” value is reported as 47.
In experiment [1], `CC(C)(C)c1nc(N2CCN(CCCCNC(=O)N3CCC(Cc4ccccc4)CC3)CC2)cc(C(F)(F)F)n1` [Compound 50, 4-Benzyl-N-(4-(4-(2-(tert-butyl)-6-(trifluoromethyl)pyrimidin-4-yl)piperazin-1-yl)butyl)piperidine-1-carboxamide] gave a Ki of 603 ± 104 nM. Besides, in experiment [2], the Ki came out at 18.4 ± 2.6 nM and the “D2/D3 (D3 selectivity ratio, D2 Ki/D3 Ki)” value is 33.
For `CC(C)(C)c1nc(N2CCN(CCCCNC(=O)N3CCC(Oc4ccccc4)CC3)CC2)cc(C(F)(F)F)n1` [Compound 51, N-(4-(4-(2-(tert-Butyl)-6-(trifluoromethyl)pyrimidin-4-yl)piperazin-1-yl)butyl)-4-phenoxypiperidine-1-carboxamide] the same measures were 1290 ± 248 nM, 44.1 ± 8.1 nM and 29.
In the same order, the values of `CC(C)(C)c1nc(N2CCN(CCCCNC(=O)N3CCC(n4c(=O)[nH]c5ccccc54)CC3)CC2)cc(C(F)(F)F)n1` [Compound 53, N-(4-(4-(2-(tert-Butyl)-6-(trifluoromethyl)pyrimidin-4-yl)piperazin-1-yl)butyl)-4-(2-oxo-2,3-dihydro-1H-benzo[d]imidazol-1-yl)piperidine-1-carboxamide] are 713 ± 78.3 nM, 35.2 ± 8.2 nM and 20.
For `CC(C)(C)c1nc(N2CCN(CCCCNC(=O)N3CCc4[nH]c5ccc(C#N)cc5c4C3)CC2)cc(C(F)(F)F)n1` [Compound 54, N-(4-(4-(2-(tert-Butyl)-6-(trifluoromethyl)pyrimidin-4-yl)piperazin-1-yl)butyl)-8-cyano-3,4-dihydro-1H-pyrido[4,3-b]indole-2(5H)-carboxamide] the same measures were 1050 ± 149 nM, 40.3 ± 7.2 nM and 26.
Take `CC(C)(C)c1cc(N2CCN(CCCCNC(=O)N3CCc4[nH]c5ccccc5c4C3)CC2)nc(C(C)(C)C)n1` [Compound 56, N-(4-(4-(2,6-Di-tert-butylpyrimidin-4-yl)piperazin-1-yl)butyl)-3,4-dihydro-1H-pyrido[4,3-b]indole-2(5H)-carboxamide]: the figures for the Ki in experiment [1] and in experiment [2] were 308 ± 29.9 nM and 9.5 ± 1.7 nM, respectively. In addition, the “D2/D3 (D3 selectivity ratio, D2 Ki/D3 Ki)” value in experiment [2] was 33.
On to `CC(C)(C)c1nc(N2CCN(CCCCNC(=O)N3CCN(c4ccc(Cl)cc4)CC3)CC2)cc(C(F)(F)F)n1` [Compound 57, N-(4-(4-(2-(tert-Butyl)-6-(trifluoromethyl)pyrimidin-4-yl)piperazin-1-yl)butyl)-4-(4-chlorophenyl)piperazine-1-carboxamide], for which the affinity in experiment [1] corresponds to a Ki of 644 ± 6.6 nM. Further, in experiment [2], the affinity, expressed as Ki, was 35.5 ± 7.2 nM and the “D2/D3 (D3 selectivity ratio, D2 Ki/D3 Ki)” value is 18.
Take `Cc1ccccc1N1CCN(C(=O)NCCCCN2CCN(c3cc(C(F)(F)F)nc(C(C)(C)C)n3)CC2)CC1` [Compound 58, N-(4-(4-(2-(tert-Butyl)-6-(trifluoromethyl)pyrimidin-4-yl)piperazin-1-yl)butyl)-4-(o-tolyl)piperazine-1-carboxamide]: the Ki in experiment [1] stood at 789 ± 192 nM. Besides, in experiment [2], the affinity, expressed as Ki, was 70.6 ± 14.8 nM and the “D2/D3 (D3 selectivity ratio, D2 Ki/D3 Ki)” value is reported as 11.
In the same order, the values of `CC(C)(C)c1nc(N2CCN(CCCCNC(=O)N3CCN(c4ccc(C#N)cc4)CC3)CC2)cc(C(F)(F)F)n1` [Compound 59, N-(4-(4-(2-(tert-Butyl)-6-(trifluoromethyl)pyrimidin-4-yl)piperazin-1-yl)butyl)-4-(4-cyanophenyl)piperazine-1-carboxamide] are 342 ± 22 nM, 19.4 ± 4.1 nM and 18.
For `CC(C)(C)c1nc(N2CCN(CCCCNC(=O)N3CCN(c4ccc(Cl)c(Cl)c4)CC3)CC2)cc(C(F)(F)F)n1` [Compound 60, N-(4-(4-(2-(tert-Butyl)-6-(trifluoromethyl)pyrimidin-4-yl)piperazin-1-yl)butyl)-4-(3,4-dichlorophenyl)piperazine-1-carboxamide] the same measures were 570 ± 119 nM, 46.6 ± 9.1 nM and 12.
For `CC(C)(C)c1nc(N2CCN(CCCCNC(=O)N3CCN(c4cc(C#N)cc(C(F)(F)F)c4)CC3)CC2)cc(C(F)(F)F)n1` [Compound 61, N-(4-(4-(2-(tert-Butyl)-6-(trifluoromethyl)pyrimidin-4-yl)piperazin-1-yl)butyl)-4-(3-cyano-5-(trifluoromethyl)phenyl)piperazine-1-carboxamide] the same measures were 896 ± 193 nM, 48 ± 10.8 nM and 19.
On to `CC(C)(C)c1nc(N2CCN(CCCCNC(=O)N3CCN(c4cc(C(F)(F)F)nc(C(C)(C)C)n4)CC3)CC2)cc(C(F)(F)F)n1` [Compound 62, 4-(2-(tert-Butyl)-6-(trifluoromethyl)pyrimidin-4-yl)-N-(4-(4-(2-(tert-butyl)-6-(trifluoromethyl)pyrimidin-4-yl)piperazin-1-yl)butyl)piperazine-1-carboxamide], for which the Ki in experiment [1] worked out at 1520 ± 344 nM. Moreover, in experiment [2], the Ki is 106 ± 5.5 nM and the “D2/D3 (D3 selectivity ratio, D2 Ki/D3 Ki)” value is 14.
For `CC(C)(C)c1nc(N2CCN(CCCCNC(=O)N3CCN(c4ccnc5cc(Cl)ccc45)CC3)CC2)cc(C(F)(F)F)n1` [Compound 63, N-(4-(4-(2-(tert-Butyl)-6-(trifluoromethyl)pyrimidin-4-yl)piperazin-1-yl)butyl)-4-(7-chloroquinolin-4-yl)piperazine-1-carboxamide] the same measures were 359 ± 45.8 nM, 19.2 ± 3.6 nM and 19.
For `CN1CCN(C(=O)NCCCCN2CCN(c3cc(C(F)(F)F)nc(C(C)(C)C)n3)CC2)CC1` [Compound 64, N-(4-(4-(2-(tert-Butyl)-6-(trifluoromethyl)pyrimidin-4-yl)piperazin-1-yl)butyl)-4-methylpiperazine-1-carboxamide] the same measures were 167 ± 25.5 nM, 9.8 ± 2 nM and 17.
In the same order, the values of `CCN1CCN(C(=O)NCCCCN2CCN(c3cc(C(F)(F)F)nc(C(C)(C)C)n3)CC2)CC1` [Compound 65, N-(4-(4-(2-(tert-Butyl)-6-(trifluoromethyl)pyrimidin-4-yl)piperazin-1-yl)butyl)-4-ethylpiperazine-1-carboxamide] are 128 ± 25.8 nM, 8.6 ± 1.1 nM and 15.
Turning to `CC(C)N1CCN(C(=O)NCCCCN2CCN(c3cc(C(F)(F)F)nc(C(C)(C)C)n3)CC2)CC1` [Compound 66, N-(4-(4-(2-(tert-Butyl)-6-(trifluoromethyl)pyrimidin-4-yl)piperazin-1-yl)butyl)-4-isopropylpiperazine-1-carboxamide], the affinity in experiment [1] corresponds to a Ki of 125 ± 25.3 nM. Moreover, in experiment [2], the affinity corresponds to a Ki of 9.6 ± 2.2 nM and the “D2/D3 (D3 selectivity ratio, D2 Ki/D3 Ki)” value is listed as 13.
In experiment [1], `CC(C)(C)c1nc(N2CCN(CCCCNC(=O)N3CCN(C4CC4)CC3Cc3ccccc3)CC2)cc(C(F)(F)F)n1` (stereo not drawn) [Compound 67, 2-Benzyl-N-(4-(4-(2-(tert-butyl)-6-(trifluoromethyl)pyrimidin-4-yl)piperazin-1-yl)butyl)-4-cyclopropylpiperazine-1-carboxamide] returned an inhibition constant (Ki) of 626 ± 143 nM. Besides, in experiment [2], the Ki was found to be 73.8 ± 17.5 nM and the “D2/D3 (D3 selectivity ratio, D2 Ki/D3 Ki)” value is 8.
Turning to `CC(C)(C)c1nc(N2CCN(CCCCNC(=O)N3CCN(CC4CC4)CC3)CC2)cc(C(F)(F)F)n1` [Compound 68, N-(4-(4-(2-(tert-Butyl)-6-(trifluoromethyl)pyrimidin-4-yl)piperazin-1-yl)butyl)-4-(cyclopropylmethyl)piperazine-1-carboxamide], the affinity in experiment [1] corresponds to a Ki of 184 ± 46.6 nM. In experiment [2], the affinity corresponds to a Ki of 13.8 ± 2.4 nM and the “D2/D3 (D3 selectivity ratio, D2 Ki/D3 Ki)” value is given as 13.

Values taken from patent US9598387B2 (Southern Research Institute, priority 2012, dated 2017).
